Assay results from patent US7897588B2, “Agents and methods for enhancing bone formation” (The Regents of the University of California, priority 2003, dated 2011).

System: ERK1 and ERK2
Test: Western blot for phosphorylated ERK in M2 cells
Format: cell-based, mouse
Details: 5 μM 20S, 1, 4 or 8 hours
Description: Western blot analysis—After treatments, cells were lysed in lysis buffer, protein concentrations determined using the Bio-Rad protein assay (Hercules, Calif. U.S.A.), and SDS-PAGE performed as previously described. Probing for native and phosphorylated ERKs was performed as previously reported.
(A) M2 cells at confluence were pretreated for four hours with RPMI containing 1% FBS, followed by treatment with control vehicle or 5 μM 20S oxysterol for 1, 4, or 8 hours. Next total cell extracts were prepared and analyzed for levels of native or phosphorylated ERK (pERK) using specific antibodies as previously described. Data from a representative of four experiments are shown, each treatment shown in duplicate samples. (B) M2 cells at confluence were pretreated for 2 hours with control vehicle (C) or 20 μM PD98059 (PD) in osteogenic medium as previously described. Next, a combination of 22R and 20S oxysterols (RS, 5 μM each) were added to appropriate wells as indicated. After 10 days of incubation, matrix mineralization was quantified by the ^45Ca incorporation assay as previously described. Data from a representative of three experiments are reported as the mean±SD of quadruplicate determinations, normalized to protein concentration (p<0.01 for RS vs. RS+PD). […] After 10 days, adipocytes were visualized by oil Red O staining and quantified by light microscopy as previously described. […]

How did the “activation of ERK1 and ERK2” value turn out when `CC(C)CCC[C@](C)(O)[C@H]1CC[C@H]2[C@@H]3CC=C4C[C@@H](O)CC[C@]4(C)[C@H]3CC[C@@]21C` [20S, 20(S)-hydroxycholesterol] was run?
Its value is “sustained activation”.
